Laboratory results from ChEMBL document CHEMBL1201862, “PubChem BioAssay data set” (2004).
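Dose response: 5 concentrations. Exposure: 48 h. Format: 96-well plates. Endpoint: linear interpolation; highest concentration if not reached. At the GI50, growth is halved.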 Active and inactive are the calls of the source. Rule as the data show it: active = GI50 up to about 1.1 µM and inactive = higher.

What was measured:
Experiment in all cases: growth of human tumour cells (NCI), 48 h
SF-539 = test system: SF-539
HCC 2998 = test system: HCC 2998
MDA-N = test system: MDA-N
TK-10 = test system: TK-10
EKVX = test system: EKVX
NCI-H226 = test system: NCI-H226
HL-60 = test system: HL-60
K562 = test system: K562
PC-3 = test system: PC-3
CAKI-1 = test system: CAKI-1
RPMI-8226 = test system: RPMI-8226
SK-OV-3 = test system: SK-OV-3
SK-MEL-28 = test system: SK-MEL-28
HT-29 = test system: HT-29
MDA-MB-435 = test system: MDA-MB-435
SNB-19 = test system: SNB-19
MCF7 = test system: MCF7
Hs-578T = test system: Hs-578T
CCRF-CEM = test system: CCRF-CEM
M14 = test system: M14

## COc1ccc(-n2nnc3c(C#N)c(-c4ccccc4)c(C)n3c2=O)cc1
SF-539
  GI50: 31.7 µM (inactive)
HCC 2998
  GI50: 72.6 µM (inactive)
MDA-N
  GI50: > 100 µM (inactive)
TK-10
  GI50: 84.7 µM (inactive)
EKVX
  GI50: 62.2 µM (inactive)
NCI-H226
  GI50: 85.1 µM (inactive)
HL-60
  GI50: 3.69 µM (inactive)
K562
  GI50: 18.4 µM (inactive)
PC-3
  GI50: 29.2 µM (inactive)
CAKI-1
  GI50: 45.4 µM (inactive)
RPMI-8226
  GI50: 26.1 µM (inactive)
SK-OV-3
  GI50: > 100 µM (inactive)
SK-MEL-28
  GI50: > 100 µM (inactive)
HT-29
  GI50: 43.9 µM (inactive)
MDA-MB-435
  GI50: > 100 µM (inactive)
SNB-19
  GI50: 78.7 µM (inactive)
MCF7
  GI50: 40.2 µM (inactive)
Hs-578T
  GI50: > 100 µM (inactive)
CCRF-CEM
  GI50: 8.39 µM (inactive)
M14
  GI50: 81.8 µM (inactive)

## COc1ccc(C#CC(=O)O)c(OC)c1
SF-539
  GI50: > 100 µM (inactive)
HCC 2998
  GI50: > 100 µM (inactive)
MDA-N
  GI50: > 100 µM (inactive)
TK-10
  GI50: > 100 µM (inactive)
EKVX
  GI50: > 100 µM (inactive)
NCI-H226
  GI50: > 100 µM (inactive)
HL-60
  GI50: > 100 µM (inactive)
K562
  GI50: > 100 µM (inactive)
PC-3
  GI50: > 100 µM (inactive)
CAKI-1
  GI50: > 100 µM (inactive)
RPMI-8226
  GI50: > 100 µM (inactive)
SK-OV-3
  GI50: > 100 µM (inactive)
SK-MEL-28
  GI50: > 100 µM (inactive)
HT-29
  GI50: > 100 µM (inactive)
MDA-MB-435
  GI50: > 100 µM (inactive)
SNB-19
  GI50: > 100 µM (inactive)
MCF7
  GI50: > 100 µM (inactive)
Hs-578T
  GI50: > 100 µM (inactive)
CCRF-CEM
  GI50: > 100 µM (inactive)
M14
  GI50: > 100 µM (inactive)

## Cc1cccc(NC(=O)O/N=C(\Cl)C(C)C)c1
SF-539
  GI50: 6.21 µM (inactive)
HCC 2998
  GI50: 19.1 µM (inactive)
MDA-N
  GI50: 10.5 µM (inactive)
TK-10
  GI50: 14 µM (inactive)
EKVX
  GI50: 6.03 µM (inactive)
NCI-H226
  GI50: 18.6 µM (inactive)
HL-60
  GI50: 1.94 µM (inactive)
K562
  GI50: 2.31 µM (inactive)
PC-3
  GI50: 16.7 µM (inactive)
CAKI-1
  GI50: 1.74 µM (inactive)
RPMI-8226
  GI50: 2.96 µM (inactive)
SK-OV-3
  GI50: 17.7 µM (inactive)
SK-MEL-28
  GI50: 7.19 µM (inactive)
HT-29
  GI50: 10.4 µM (inactive)
MDA-MB-435
  GI50: 14.5 µM (inactive)
SNB-19
  GI50: 20.3 µM (inactive)
MCF7
  GI50: 10 µM (inactive)
Hs-578T
  GI50: 23.1 µM (inactive)
CCRF-CEM
  GI50: 0.847 µM (active)
M14
  GI50: 4.58 µM (inactive)

## COc1cc2c(cc1OC)C1(c3ccccc3)CN(C2)Cc2cc(OC)c(OC)cc21
SF-539
  GI50: 19.3 µM (inactive)
HCC 2998
  GI50: 21.8 µM (inactive)
MDA-N
  GI50: > 100 µM (inactive)
TK-10
  GI50: 44.7 µM (inactive)
EKVX
  GI50: 55.5 µM (inactive)
NCI-H226
  GI50: 26.7 µM (inactive)
HL-60
  GI50: 19.3 µM (inactive)
K562
  GI50: 29.1 µM (inactive)
PC-3
  GI50: 31.3 µM (inactive)
CAKI-1
  GI50: 40 µM (inactive)
RPMI-8226
  GI50: 26 µM (inactive)
SK-OV-3
  GI50: 45.8 µM (inactive)
SK-MEL-28
  GI50: > 100 µM (inactive)
HT-29
  GI50: 29 µM (inactive)
MDA-MB-435
  GI50: 14.5 µM (inactive)
SNB-19
  GI50: 44.5 µM (inactive)
MCF7
  GI50: 33.3 µM (inactive)
Hs-578T
  GI50: 27.5 µM (inactive)
CCRF-CEM
  GI50: 15.6 µM (inactive)
M14
  GI50: 23.9 µM (inactive)

## Nc1nn2c(nc(N)c3c(N)n[nH]c32)c1/N=N\c1ccc(Br)cc1
SF-539
  GI50: 15.1 µM (inactive)
HCC 2998
  GI50: > 100 µM (inactive)
MDA-N
  GI50: 3.65 µM (inactive)
TK-10
  GI50: 66.8 µM (inactive)
EKVX
  GI50: > 100 µM (inactive)
NCI-H226
  GI50: 55 µM (inactive)
HL-60
  GI50: 8.15 µM (inactive)
K562
  GI50: 2.16 µM (inactive)
PC-3
  GI50: > 100 µM (inactive)
CAKI-1
  GI50: > 100 µM (inactive)
RPMI-8226
  GI50: > 100 µM (inactive)
SK-OV-3
  GI50: > 100 µM (inactive)
SK-MEL-28
  GI50: 7.73 µM (inactive)
HT-29
  GI50: 55.8 µM (inactive)
MDA-MB-435
  GI50: 3.13 µM (inactive)
SNB-19
  GI50: 29.9 µM (inactive)
MCF7
  GI50: > 100 µM (inactive)
Hs-578T
  GI50: 3.32 µM (inactive)
CCRF-CEM
  GI50: 2.1 µM (inactive)
M14
  GI50: 5.86 µM (inactive)

## NC(=O)CCSC(CC(=O)c1ccc(Cl)cc1)c1ccc(Cl)cc1 (stereo not given)
SF-539
  GI50: 19.7 µM (inactive)
HCC 2998
  GI50: 18.2 µM (inactive)
MDA-N
  GI50: 16.7 µM (inactive)
TK-10
  GI50: 48 µM (inactive)
EKVX
  GI50: 28.2 µM (inactive)
NCI-H226
  GI50: 36 µM (inactive)
HL-60
  GI50: 6.97 µM (inactive)
K562
  GI50: 7.1 µM (inactive)
PC-3
  GI50: 34.6 µM (inactive)
CAKI-1
  GI50: 12.4 µM (inactive)
RPMI-8226
  GI50: 2.21 µM (inactive)
SK-OV-3
  GI50: 38.1 µM (inactive)
SK-MEL-28
  GI50: 28.4 µM (inactive)
HT-29
  GI50: 19.9 µM (inactive)
MDA-MB-435
  GI50: 16 µM (inactive)
SNB-19
  GI50: 32.5 µM (inactive)
MCF7
  GI50: 5.08 µM (inactive)
Hs-578T
  GI50: 46.5 µM (inactive)
CCRF-CEM
  GI50: 2.93 µM (inactive)
M14
  GI50: 27.2 µM (inactive)

## CCCCCCc1ccc(C(=O)NO)cc1
SF-539
  GI50: 49.8 µM (inactive)
HCC 2998
  GI50: 65.2 µM (inactive)
MDA-N
  GI50: 45.6 µM (inactive)
TK-10
  GI50: 51.5 µM (inactive)
EKVX
  GI50: 37.8 µM (inactive)
NCI-H226
  GI50: 24.4 µM (inactive)
HL-60
  GI50: 16.5 µM (inactive)
K562
  GI50: 24.5 µM (inactive)
PC-3
  GI50: 31.8 µM (inactive)
CAKI-1
  GI50: 28.1 µM (inactive)
RPMI-8226
  GI50: 12.6 µM (inactive)
SK-OV-3
  GI50: 40.2 µM (inactive)
SK-MEL-28
  GI50: 56.5 µM (inactive)
HT-29
  GI50: 36 µM (inactive)
MDA-MB-435
  GI50: 53.5 µM (inactive)
SNB-19
  GI50: 45.3 µM (inactive)
MCF7
  GI50: 59.3 µM (inactive)
Hs-578T
  GI50: > 100 µM (inactive)
CCRF-CEM
  GI50: 6.92 µM (inactive)
M14
  GI50: 35.1 µM (inactive)

## CC(=O)NCCc1c[nH]c2ccc(Cl)cc12
SF-539
  GI50: > 100 µM (inactive)
HCC 2998
  GI50: 74.8 µM (inactive)
MDA-N
  GI50: > 100 µM (inactive)
TK-10
  GI50: > 100 µM (inactive)
EKVX
  GI50: > 100 µM (inactive)
NCI-H226
  GI50: > 100 µM (inactive)
HL-60
  GI50: > 100 µM (inactive)
K562
  GI50: > 100 µM (inactive)
PC-3
  GI50: > 100 µM (inactive)
CAKI-1
  GI50: > 100 µM (inactive)
RPMI-8226
  GI50: > 100 µM (inactive)
SK-OV-3
  GI50: > 100 µM (inactive)
SK-MEL-28
  GI50: > 100 µM (inactive)
HT-29
  GI50: > 100 µM (inactive)
MDA-MB-435
  GI50: > 100 µM (inactive)
SNB-19
  GI50: > 100 µM (inactive)
MCF7
  GI50: > 100 µM (inactive)
Hs-578T
  GI50: > 100 µM (inactive)
CCRF-CEM
  GI50: 60.4 µM (inactive)
M14
  GI50: 90.2 µM (inactive)
